According to patent publication US5607969A, “L-DOPA ethyl ester to treat Parkinson's disease” (priority 1995, dated 1997):
Entries after “also recorded” stand apart in the source; their conditions may differ. Where a name gives a salt, the structure may show the parent alone. Read-outs that look alike come from different tables or passages of the source. Blank lines part the entries; values can stand above or below the compound they belong to.

Experiments:
[1] = Stability of L-DOPA ethyl ester prepared according to Examples 1 and 2 (Table 2); assay type: physicochemical; parameters: key to COLOR: A: White with gray particles; B: Cream; C: WhiteYellow; D: Yellow; E: Dark Yellow; F: Gray; IMPURITIES: unit not given beside the values
Excerpt: | STABILITY OF L-DOPA ESTER PREPARED

[2] = literature, hydrochloride, cited from earlier work
[3] = Hygroscopicity, stability and crystallization of L-DOPA ethyl ester hydrochloride / free base made by conventional methods; assay type: physicochemical
Excerpt: GB Patent No. 1,364,505 and corresponding U.S. Pat. No. 3,803,120, assigned to Hoffman-La Roche, describe the synthesis of L-DOPA ethyl ester hydrochloride salt and free base. This compound synthesized is used as an intermediate in the synthesis of other compounds and is not characterized in the patent specification. […] This material cannot be used for pharmaceutical compositions.

[4] = Bio-availability of L-DOPA ethyl ester in rats (subcutaneous), plasma L-DOPA profile; assay type: in vivo; settings: s.c.
Description: Three subgroups of rats, each comprising four males and four females, were injected subcutaneously with 100 mg./kg. L-DOPA equivalents as L-DOPA ethyl ester. The L-DOPA ethyl ester was prepared as described in Example 1 and formulated as described in Example 4. After injection, blood samples were taken from the tail at the times shown below and analyzed for L-DOPA as described in T. Wikberg, J. of Pharmaceutical & Biomedical Analysis 9: 167-176 (1991). […] The L-DOPA plasma profile following injection is shown below: […]

[5] = system: fluctuating Parkinsonian patients; assay: First oral clinical trial in fluctuating Parkinsonian patients; assay type: in vivo, human; settings: four occasions over two days, five patients
Description: This was the second in a series of oral clinical trials carried out with L-DOPA ethyl ester. The first clinical trial was carried out in five fluctuating Parkinsonian patients in the hospital setting where L-DOPA ethyl ester was administered on four occasions over a two day period.

[6] = system: fluctuating Parkinsonian patients; assay: Second oral clinical trial: safety, tolerability and preliminary efficacy of L-DOPA ethyl ester, sub-chronic; assay type: in vivo, human
Description: A clinical trial was carried out to determine the safety, tolerability, and preliminary efficacy of L-DOPA ethyl ester administered sub-chronically via the oral route in eight fluctuating Parkinsonian patients.
In the second clinical trial, all patients filled out daily diary cards for at least 10 days prior to study entry to ensure their reliability. Upon study entry they were instructed to continue filling out daily diary cards for the 10-day period during which they were taking L-DOPA ethyl ester.
Three out of the patients' normal daily doses with levodopa/carbidopa or levodopa/benserazide were switched to L-DOPA ethyl ester, each day for ten days. At the beginning and end of this ten-day period, a physical exam was performed and blood chemistry analyzed.

[7] = system: Parkinson's Disease patients having response fluctuations; assay: Clinical trial: administration of L-DOPA ethyl ester by injection (UPDRS on/off phases); assay type: in vivo, human
Description: A clinical trial was undertaken to assess the clinical efficacy of L-DOPA ethyl ester administered by sub-cutaneous injection.
The solution for injection L-DOPA ethyl ester 100mg, HCl to pH 4.0 and purified water as the vehicle.
Ten Parkinson's Disease patients having response fluctuations were hospitalized. These patients are typified in have "on" phases fluctuating with incapacitating "off" phases. Patients were administered s.c. or i.m. L-DOPA ethyl ester at escalating doses of 150-300mg in 2ml vehicle, twice daily, one hour after an oral capsule containing 25mg of carbidopa. "Off" and "on" UPDRS (Unified Parkinson's Disease Rating Scale) profiles, time to "on" phase and duration of "on" phase were measured. Blood samples were taken every 10 minutes post-L-DOPA ethyl ester administration for measurement of levodopa levels.

[8] = Oral administration of L-DOPA ethyl ester to volunteers, plasma L-DOPA levels; assay type: in vivo, human; settings: humans
Description: Human volunteers orally received 100 mg equivalents of L-DOPA as L-DOPA ethyl ester prepared according to Example 1 and formulated as described in Example 5. Plasma levels of L-DOPA following administration of representative patients are listed below in Table 5.

Parkinsonian patients = settings: cited from earlier work
[9] = cited from earlier work
[10] = synthesized by the methods of GB 1,364,505 / U.S. 3,803,120
[11] = 25° C. -N2, 1 m, listed as Example 1
[12] = 25° C. -N2, 2 m, listed as Example 1
[13] = 25° C. -N2, 4 m, listed as Example 1
[14] = 40° C., 1 m, listed as Example 1
[15] = 40° C., 2 m, listed as Example 1
[16] = 40° C., 4 m, listed as Example 1
[17] = s.c./i.m. injection, dose dependence

SMILES: CCOC(=O)[C@@H](N)Cc1ccc(O)c(O)c1 [L-DOPA ethyl ester hydrochloride salt, L-DOPA ethyl ester hydrochloride]
crystallization [2]: difficult to crystallize
hygroscopicity [2]: hygroscopic
crystallization ([2]; listed as ethyl ester): could not be crystallized as its hydrochloride salt
hygroscopicity ([2]; listed as ethyl ester): hygroscopic potential
hygroscopicity ([3]; applicant's own finding, hydrochloride): hygroscopic nature
crystallization [3, 10]: difficult to crystallize
stability [3, 10]: not stable

SMILES: CCOC(=O)[C@@H](N)Cc1ccc(O)c(O)c1 [L-DOPA ethyl ester]
COLOR [1, 11]: A
IMPURITIES [1, 11]: 1.2
COLOR [1, 12]: B
IMPURITIES [1, 12]: 0.7
COLOR [1, 13]: C
IMPURITIES [1, 13]: 0.6
COLOR [1, 14]: A
IMPURITIES [1, 14]: 2.4
COLOR [1, 15]: B
IMPURITIES [1, 15]: 0.7
ASSAY ([1]; 40° C., 4 m, 172800 min, listed as Example 1, 172800 min): 99.7%
COLOR [1, 16]: C
IMPURITIES [1, 16]: 0.5
remaining at 720 h ([1]; storage, 25° C. -N2, 1 m): 98%
remaining at 1440 h ([1]; storage, 25° C. -N2, 2 m): 99.4%
remaining at 2880 h ([1]; storage, 25° C. -N2, 4 m): 99.5%
remaining at 720 h ([1]; storage, 40° C., 1 m): 98.9%
remaining at 1440 h ([1]; storage, 40° C., 2 m): 99.6%
conversion to L-DOPA [4]: fully converted to L-DOPA
L-DOPA ethyl ester detected in plasma samples ([4]; 100 mg./kg. L-DOPA equivalents): No L-DOPA ethyl ester was detected in any of the plasma samples
kinetic profile ([4]; compared with L-DOPA): kinetic profile similar to L-DOPA
adverse reactions [5]: No adverse reactions were recorded in any of the patients
serum chemistry ([6]; following ten-day treatment): no abnormalities or changes for any patient
duration of the anti-Parkinsonian effect ([6]; ten days): marked beneficial effect
latency to initiation of drug action ([6]; ten days): marked beneficial effect
variability of the response of the patient to the drug's effect ([6]; ten days): significant decrease
safety and tolerability ([6]; ten days, three times per day): well tolerated by all individuals in the trial; also recorded: safe, well tolerated
unpredictability of drug response ([6]; ten days, three times per day, potential advantage): reducing the unpredictability of drug response
patient complaints / adverse reaction ([6]; ten-day treatment, eight patients): no patient complaints nor any reported adverse reaction
MEAN TIME TO "ON" (RANGE) ([7]; 150 mg i.m., 2 injections, range (30-45)): 37.5 min
MEAN DURATION OF "ON" (RANGE) ([7]; 150 mg i.m., 2 injections, range (60-70)): 65 min
MEAN DURATION OF "ON" (RANGE) ([7]; 150 mg s.c., 6 injections, range (10-55)): 31.4 min
MEAN TIME TO "ON" (RANGE) ([7]; 150 mg s.c., 6 injections, range (25-90)): 54 min
MEAN TIME TO "ON" (RANGE) ([7]; 200 mg i.m., 5 injections, range (20-40)): 29.2 min
MEAN DURATION OF "ON" (RANGE) ([7]; 200 mg i.m., 5 injections, range (28-175)): 104.5 min
MEAN TIME TO "ON" (RANGE) ([7]; 200 mg s.c., 19 injections, range (10-120)): 38.6 min
MEAN DURATION OF "ON" (RANGE) ([7]; 200 mg s.c., 19 injections, range (10-235)): 126.9 min
MEAN TIME TO "ON" (RANGE) ([7]; 250 mg i.m., 5 injections, range (10-35)): 27.5 min
MEAN DURATION OF "ON" (RANGE) ([7]; 250 mg i.m., 5 injections, range (75-170)): 133.3 min
MEAN TIME TO "ON" (RANGE) ([7]; 250 mg s.c., 8 injections, range (20-40)): 27.1 min
MEAN DURATION OF "ON" (RANGE) ([7]; 250 mg s.c., 8 injections, range (60-210)): 155 min
MEAN TIME TO "ON" (RANGE) ([7]; 300 mg i.m., 7 injections, range (5-35)): 18.3 min
MEAN DURATION OF "ON" (RANGE) ([7]; 300 mg i.m., 7 injections, range (135-265)): 196.7 min
MEAN TIME TO "ON" (RANGE) ([7]; 300 mg s.c., 6 injections, range (5-37)): 22.8 min
MEAN DURATION OF "ON" (RANGE) ([7]; 300 mg s.c., 6 injections, range (80-315)): 193 min
patients turned to an "on" phase ([7]; s.c. LDEE injection): All patients were turned to an "on" phase
local or general side effects ([7]; s.c./i.m. injection): No local or general side effects were observed
plasma levodopa elevations ([7]; s.c./i.m. injection): rapid and sustained plasma levodopa elevations
duration of "on" phases [7, 17]: increased in a dose-dependant manner
latency of onset of "on" phases [7, 17]: decreased
conversion of L-DOPA ethyl ester to L-DOPA [8]: rapid conversion of L-DOPA ethyl ester to L-DOPA in humans

SMILES: N[C@@H](Cc1ccc(O)c(O)c1)C(=O)O [L-DOPA]
initial period of satisfactory, smooth and stable clinical benefit (Parkinsonian patients; L-DOPA therapy, on the average): 2-5 years
bioavailability (Parkinsonian patients; in vivo): poor bioavailability
half-life in vivo (Parkinsonian patients; in vivo): short half-life in vivo
mean duration of "on" phase ([7]; levodopa, prior to administration of LDEE): approximately 90 minutes
mean latency to an "on" phase ([7]; post-administration of levodopa, prior to administration of LDEE): 45 to 75 min
solubility [9]: very poor solubility

More lines, now with the values ahead:

COLOR ([1]; 25° C. -N2, 1 m): D
IMPURITIES ([1]; 25° C. -N2, 1 m): 16.9
ASSAY ([1]; 25° C. -N2, 1 m, 43200 min): 83.1%
COLOR ([1]; 25° C. -N2, 2 m): E
IMPURITIES ([1]; 25° C. -N2, 2 m): 17.2
ASSAY ([1]; 25° C. -N2, 2 m, 86400 min): 84.4%
COLOR ([1]; 40° C., 1 m): E
IMPURITIES ([1]; 40° C., 1 m): 20.9
ASSAY ([1]; 40° C., 1 m, 43200 min): 82.6%
COLOR ([1]; 40° C., 2 m): E
IMPURITIES ([1]; 40° C., 2 m): 19.3
ASSAY ([1]; 40° C., 2 m, 86400 min): 80.0%
ASSAY ([1]; t = 0): 87%
SMILES: CCOC(=O)[C@@H](N)Cc1ccc(O)c(O)c1 [Example 2a, L-DOPA ethyl ester]

COLOR ([1]; 25° C. -N2, 1 m): D/E
IMPURITIES ([1]; 25° C. -N2, 1 m): 13.0
ASSAY ([1]; 25° C. -N2, 1 m, 43200 min): 88.0%
COLOR ([1]; 25° C. -N2, 2 m): D/E
IMPURITIES ([1]; 25° C. -N2, 2 m): 13.9
ASSAY ([1]; 25° C. -N2, 2 m, 86400 min): 86.8%
COLOR ([1]; 25° C. -N2, 4 m): D/E
IMPURITIES ([1]; 25° C. -N2, 4 m): 9.7
ASSAY ([1]; 25° C. -N2, 4 m, 172800 min): 88.1%
COLOR ([1]; 40° C., 1 m): D/E
IMPURITIES ([1]; 40° C., 1 m): 14.0
ASSAY ([1]; 40° C., 1 m, 43200 min): 85.1%
COLOR ([1]; 40° C., 2 m): D/E
IMPURITIES ([1]; 40° C., 2 m): 18.2
ASSAY ([1]; 40° C., 2 m, 86400 min): 83.3%
COLOR ([1]; 40° C., 4 m): F
ASSAY ([1]; 40° C., 4 m, 172800 min): 79.2%
ASSAY ([1]; t = 0): 87.9%
SMILES: CCOC(=O)[C@@H](N)Cc1ccc(O)c(O)c1 [Example 2b, L-DOPA ethyl ester]

COLOR ([1]; 25° C. -N2, 1 m): D
IMPURITIES ([1]; 25° C. -N2, 1 m): 5.6
ASSAY ([1]; 25° C. -N2, 1 m, 43200 min): 94.0%
COLOR ([1]; 25° C. -N2, 2 m): D/E
IMPURITIES ([1]; 25° C. -N2, 2 m): 5.1
ASSAY ([1]; 25° C. -N2, 2 m, 86400 min): 93.6%
COLOR ([1]; 25° C. -N2, 4 m): F
IMPURITIES ([1]; 25° C. -N2, 4 m): 5.6
ASSAY ([1]; 25° C. -N2, 4 m, 172800 min): 94.1%
COLOR ([1]; 40° C., 1 m): D
IMPURITIES ([1]; 40° C., 1 m): 5.7
ASSAY ([1]; 40° C., 1 m, 43200 min): 91.7%
COLOR ([1]; 40° C., 2 m): D/E
IMPURITIES ([1]; 40° C., 2 m): 4.8
ASSAY ([1]; 40° C., 2 m, 86400 min): 93%
COLOR ([1]; 40° C., 4 m): F
IMPURITIES ([1]; 40° C., 4 m): 6.4
ASSAY ([1]; 40° C., 4 m, 172800 min): 93%
ASSAY ([1]; t = 0): 95.8%
SMILES: CCOC(=O)[C@@H](N)Cc1ccc(O)c(O)c1 [Example 2c, L-DOPA ethyl ester]
